Assay [1] has as its system Locomotor Activity in Mice. Briefly: Inhibition of locomotor activity in mice. The conditions noted are these: for ED50: Mus musculus, ip; for Inhibition of Locomotor Activity in Mice ED50: IP. Type of assay: in vivo. The text has this: (§1) The above test methods are incorporated herein by reference.
The target of assay [2] is T1, [^3 H]-Spiroperidol Binding (Homo sapiens, UniProt P14416).
T1 construct: receptor assay described by D. Grigoriadis and P. Seeman, Journal of Neurochemistry, Volume 44, pages 1925-1935 (1985); from tissue
The assay can be described thus: Inhibition of [^3 H]-spiroperidol binding in a receptor assay.
From the text: as §1

For assay [3], the system named is Brain Striatal Dopamine Synthesis. Briefly: Effects on brain striatal dopamine synthesis in rats. The conditions noted are these: for inhibition in vivo at 10 mg/kg: Rattus norvegicus; for Effects on Brain Striatal Dopamine Synthesis in Rats, % inhibition: 10 mg/kg. Type of assay: in vivo.
From the text: as §1

In assay [4] the target is sigma opiate binding site. The assay can be described thus: Inhibition of [^3 H] DTG (ditoluoyl guanidine; a sigma ligand) binding. As to the method:
The compounds of Formula I are valuable dopaminergic agents. […] Thus, the compounds of Formula I were tested for their ability to inhibit locomotor activity in mice according to the assay described by J. R. McLean, et al, Pharmacology, Biochemistry and Behavior, Volume 8, pages 97-99 (1978); for their ability to inhibit [[…] ]-spiroperidol binding in a receptor assay described by D. Grigoriadis and P. Seeman, Journal of Neurochemistry, Volume 44, pages 1925-1935 (1985); and for their ability to inhibit dopamine synthesis in rats according to the protocol described by J. R. Walters and R. H. Roth, Naunyn-Schmiedeberg's Archives of Pharmacology, Volume 296, pages 5-14 (1976). The above test methods are incorporated herein by reference. The data in the table show the dopaminergic activity of representative compounds of Formula I. Additionally, the compounds of Formula I are ligands for the sigma opiate binding site. The data in the table show the inhibition of [^3 H] DTG (ditoluoyl guanidine; a sigma ligand) binding by representative compounds of Formula I, according to the method of E. Weber, et al, Proceedings of the National Academy of Sciences, USA, Volume 83, pages 8784-8788 (1986).

The mark [5] stands for this setting: read-out: Inhibition of [^3 H]-Spiroperidol Binding IC50.

pIC50: −log10 of the molar value. Like-named read-outs stand apart in the source and are kept apart here.

T1 sequence (P14416 whole entry): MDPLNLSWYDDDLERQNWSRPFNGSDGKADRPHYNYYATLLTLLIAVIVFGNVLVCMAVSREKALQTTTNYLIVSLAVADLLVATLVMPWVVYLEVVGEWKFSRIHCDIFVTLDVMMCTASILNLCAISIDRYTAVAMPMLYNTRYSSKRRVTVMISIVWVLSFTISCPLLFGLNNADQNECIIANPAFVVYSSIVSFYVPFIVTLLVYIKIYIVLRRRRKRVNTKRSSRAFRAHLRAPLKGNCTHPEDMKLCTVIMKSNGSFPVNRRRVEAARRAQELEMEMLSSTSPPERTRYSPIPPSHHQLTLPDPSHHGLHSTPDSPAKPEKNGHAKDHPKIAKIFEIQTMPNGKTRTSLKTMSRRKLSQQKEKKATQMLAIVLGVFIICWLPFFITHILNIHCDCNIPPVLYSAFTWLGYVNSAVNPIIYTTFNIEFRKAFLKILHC

As to `OC1(c2ccsc2)CCC(CCN2CCN(c3ccccn3)CC2)CC1` (stereo not shown) [Example 14, 4-[2-[4-(2-Pyridinyl)-1-piperazinyl]ethyl]-1-(3-thienyl)cyclohexanol], it took a dose of 0.48 mg/kg to reach the 50% effect level in assay [1] (ED50). Besides, the pIC50 (usually −log10 of the IC50, conventionally taken in molar units) in assay [2] (setting [5]) was 6.51; in assay [4] it was 8.35. The inhibition in vivo (commonly the share of the control response that was lost under treatment) at 10 mg/kg in assay [3] (ip) is 37%.

As for `O=C(N[C@H]1CC[C@@H](CCN2CCN(c3ccccn3)CC2)CC1)c1ccccc1` [Example 53, cis N-[4-[2-[4-(2-Pyridinyl)-1-piperazinyl]ethyl]cyclohexyl]benzamide], the 50% effective dose (ED50) (as a rule, the midpoint of the dose-response relation) in assay [1] came to 4.5 mg/kg. The pIC50 in assay [2] (setting [5]) was 5.48. Moreover, 10 mg/kg produced 36% inhibition in vivo in assay [3] (ip).

In the case of `OC1(c2ccccn2)CCC(CCN2CC=C(c3ccccc3)CC2)CC1` (stereo not drawn) [Example 11, cis-1-(2-Pyridinyl)-4-[2-[3,6-dihydro-4-phenyl-1(2H)-pyridinyl]ethyl]cyclohexanol], the 50% effect level in assay [1] (ED50) was put at a dose of 0.64 mg/kg. Further, the results for the negative-log IC50 (pIC50) in assay [2] (setting [5]) and in assay [4] were 6.81 and 8.46, respectively.

Regarding `O=C(N[C@H]1CC[C@H](N2CC=C(c3ccccc3)CC2)CC1)c1cccnc1` [Example 49, trans N-[4-(3,6-Dihydro-4-phenyl-1(2H)-pyridinyl)cyclohexyl]-3-pyridinecarboxamide], in assay [1], it took a dose of 2.4 mg/kg to reach the 50% effect level (ED50). Besides, in assay [2] (setting [5]), the negative logarithm of the IC50 (pIC50) is 6.22. In addition, testing at 10 mg/kg in assay [3] (IP) gave an inhibition in vivo of 72%.

With `O=C(N[C@H]1CC[C@H](N2CC=C(c3ccccc3)CC2)CC1)c1ccccc1` [Example 46, trans N-[4-(3,6-Dihydro-4-phenyl-1(2H)-pyridinyl)cyclohexyl]benzamide], the ED50 in assay [1] was found to be 0.16 mg/kg. Moreover, in assay [2] (setting [5]), the negative logarithm of the IC50 (pIC50) is 6.44. Also, in assay [3] (IP), testing at 10 mg/kg gave an inhibition in vivo of 95%.

Compound `Cc1ccc(C(=O)N[C@H]2CC[C@H](CCN3CCN(c4ccccn4)CC3)CC2)cc1` [Example 54, trans 4-Methyl-N-[4-[2-[4-(2-pyridinyl)-1-piperazinyl]ethyl]cyclohexyl]benzamide] showed an ED50 in assay [1] of 0.11 mg/kg. Moreover, the pIC50 in assay [2] (setting [5]) was 6.54. Moreover, the inhibition in vivo at 10 mg/kg in assay [3] (ip) is 0%.

As to `COc1ccc(C2(O)CCC(CCN3CCN(c4ccccn4)CC3)CC2)cc1` (stereo not drawn) [Example 15, trans-1-(4-Methoxyphenyl)-4-[2-[4-(2-pyridinyl)-1-piperazinyl]ethyl]cyclohexanol], the “Inhibition of Locomotor Activity in Mice ED50” value (“Inhibition … in Mice ED50” for short) in assay [1] came to 0.3 mg/kg. For the same compound, in assay [2] (setting [5]), the pIC50 is 6.03. Moreover, in assay [3] (IP), the “Effects on Brain Striatal Dopamine Synthesis in Rats, % inhibition” value (from here on “Effects … % inhibition”) worked out at 52%.

Consider `OC1(c2cccs2)CCC(CCN2CCN(c3ccccn3)CC2)CC1` (stereo not drawn) [Example 3, cis-4-[2-[4-(2-Pyridinyl)-1-piperazinyl]ethyl]-1-(2-thienyl)cyclohexanol], for which, in assay [1], the 50% effect level (ED50) was put at a dose of 1.3 mg/kg. The pIC50 in assay [2] (setting [5]) is 6.58; in assay [4], 8.22. Also, the inhibition in vivo at 10 mg/kg in assay [3] (ip) was 67%.

For `OC1(c2cccs2)CCC(CCN2CCN(c3ccccn3)CC2)CC1` (stereo not drawn) [Example 4, trans-4-[2-[4-(2-Pyridinyl)-1-piperazinyl]ethyl]-1-(2-thienyl)cyclohexanol], in assay [1], the “Inhibition … in Mice ED50” value is on record as 1.1 mg/kg. Also, the pIC50 in assay [2] (setting [5]) was 6.47; in assay [4], 8.30. In addition, the “Effects … % inhibition” value in assay [3] (IP) was 47%.

With `O=C(N[C@H]1CC[C@H](N2CC=C(c3ccccc3)CC2)CC1)c1cccs1` [Example 47, trans N-[4-(3,6-Dihydro-4-phenyl-1(2H)-pyridinyl)cyclohexyl]-2-thiophenecarboxamide], the 50% effective dose (ED50) in assay [1] came out at 0.23 mg/kg. In assay [2] (setting [5]), the pIC50 was 6.52. Besides, 10 mg/kg produced 74% inhibition in vivo in assay [3] (IP).

Turning to `COc1ccc(C2(O)CCC(CCN3CCN(c4ccccn4)CC3)CC2)cc1` (stereo not drawn) [Example 8, cis-1-(4-Methoxyphenyl)-4-[2-[4-(2-pyridinyl)-1-piperazinyl]ethyl]cyclohexanol], in assay [1], the “Inhibition … in Mice ED50” value is 0.9 mg/kg. Besides, in assay [2] (setting [5]), the negative logarithm of the IC50 (pIC50) was 6.77. Moreover, the “Effects … % inhibition” value in assay [3] (IP) is recorded as 88%.

The compound `O=C(N[C@H]1CC[C@H](CCN2CC=C(c3ccccc3)CC2)CC1)c1ccccc1` [Example 72, trans N-[4-[2-(3,6-Dihydro-4-phenyl-1(2H)-pyridinyl)ethyl]cyclohexyl]benzamide] gave an ED50 in assay [1] of 0.27 mg/kg. In assay [2] (Inhibition of [^3 H]-Spiroperidol Binding IC50), this compound showed a pIC50 of 7.00. In addition, the inhibition in vivo at 10 mg/kg in assay [3] (IP) worked out at 74%.

The compound `OC1(c2ccccc2)CCC(CCN2CCN(c3ccccn3)CC2)CC1` (stereo not shown) [Example 5, 1-Phenyl-4-[2-[4-(2-pyridinyl)-1-piperazinyl]ethyl]cyclohexanol] returned an ED50 in assay [1] of 1.8 mg/kg. In assay [2] (setting [5]), the pIC50 was 6.27. The same compound had an inhibition in vivo at 10 mg/kg in assay [3] (ip) of 35%.

Consider `O=C(N[C@H]1CC[C@H](CCN2CC=C(c3ccccc3)CC2)CC1)c1cccs1` [Example 71, trans N-[4-[2-(3,6-Dihydro-4-phenyl-1(2H)-pyridinyl)ethyl]cyclohexyl]-2-thiophenecarboxamide], for which the ED50 in assay [1] amounted to 0.21 mg/kg. Moreover, the pIC50 in assay [2] (setting [5]) was 6.68. In assay [3] (IP), at 10 mg/kg the inhibition in vivo was 79%.

For the compound `OC1(c2ccc(F)cc2)CCC(CCN2CCN(c3ccccn3)CC2)CC1` (stereo not shown) [Example 7, 1-(4-Fluorophenyl)-4-[2-[4-(2-pyridinyl)-1-piperazinyl]ethyl]cyclohexanol], it took a dose of 0.64 mg/kg to reach the 50% effect level in assay [1] (ED50). Testing at 10 µM in assay [2] (at 10^-5 M) gave an inhibition of 94%. In assay [3] (ip), this compound returned an inhibition in vivo at 10 mg/kg of 48%. This compound had a pIC50 in assay [4] of 7.78.

In assay [1], `O=C(N[C@H]1CC[C@H](CCN2CCN(c3ccccn3)CC2)CC1)c1ccccc1` [Example 52, trans N-[4-[2-[4-(2-Pyridinyl)-1-piperazinyl]ethyl]cyclohexyl]benzamide] gave an ED50 of 0.16 mg/kg. Further, in assay [2] (setting [5]), the pIC50 was 6.36. Moreover, in assay [3] (ip), the inhibition in vivo at 10 mg/kg is 87%.

The compound `CN(C(=O)c1ccccc1)[C@H]1CC[C@H](N2CCN(c3ccccn3)CC2)CC1` [Example 42, trans N-Methyl-N-[4-[4-(2-pyridinyl)-1-piperazinyl]cyclohexyl]benzamide] returned an ED50 in assay [1] of 2.4 mg/kg. For the same compound, in assay [2] (setting [5]), the negative logarithm of the IC50 (pIC50) is 5.32. In assay [3] (ip), this compound registered an inhibition in vivo at 10 mg/kg of 15%.

The values are drawn from patent US5047406A, “Substituted cyclohexanols as central nervous system agents” (Warner-Lambert Co., priority 1990, dated 1991).
